Results published in patent US20040133008A1, “Amide compounds” (FUJISAWA PHARMACEUTICAL CO., LTD., priority 2002, published 2004).

Experiments:
ddY-mice = assay: Lipid Lowering Effect on ddY-Mice; format: in vivo; conditions: male ddY-mice, dose 0.32 mg/kg orally in olive oil, plasma TG 2 hours after administration; (TG increase in drug treated group/TG increase in control group)×100
Description: Test 2: Lipid Lowering Effect on ddY-Mice
Male ddY-mice were housed in temperature- and humidity-controlled rooms and fed with laboratory chow. The animals were randomized according to their body weight and food was deprived about 16 hours before experiment. Baseline blood sample was collected from the retro orbital venous plexus then the animals were orally dosed with drugs in olive oil (10 ml/kg). For control group, 10 ml/kg of olive oil was loaded orally. Blood samples were drawn at 2 hours after drug administration for the measurement of triglyceride (TG) elevation. Plasma TG was determined by conventional enzyme method (The triglyceride E-test Wako).
Lipid lowering effects were shown in percent of the TG increase in drug treated group, relative to the TG increase in control group.
Lipid lowering effect(%)=(TG increase in drug treated group/TG increase in control group)×100

Apo B secretion = assay: Measurement of Inhibition of Apo B Secretion; format: cell-based; conditions: Homo sapiens; HepG2 cells, 10^−8 M test compound, 15-hour incubation, Apo B in media by ELISA, 0.1% DMSO treated cells as controls
Description: Test 1: Measurement of Inhibition of Apo B Secretion
HepG2 cells were seeded in Eagles medium containing 10% fetal calf serum (FCS) at a density of 30000 cells/well in 96-well plates and allowed to grow for 3 days before treatment. At this time, the medium was replaced with fresh medium containing 0.1% dimethyl sulfoxide (DMSO) and the indicated concentrations of a test compound. After 15-hour incubation, the amount of Apo B and Apo AI accumulated in the media was determined by ELISA.
The assay was carried out at ambient temperature. A flat bottomed micro ELISA plate (manufactured by Nunc) was coated with an anti Apo B monoclonal antibody solution ([…] in 0.05% carbonate buffer, pH 9.6) by adding the antibody solution at a volume of 100 μl per well. After 1-hour incubation on a plate mixer, the unbound materials were removed by washing the well 3 times with a washing buffer (phosphate buffered saline, pH 7.2 containing 0.1% bovine serum albumin and 0.05% Tween-20). Then 20 μl of […] and 100 μl of a solution of peroxidase coupled anti Apo B antibody were added. After 1-hour incubation on a plate mixer, washing was performed 3 times to remove the unbound materials. A freshly prepared substrate solution (2.5 mg/ml ortho-phenylene diamine and 0.018% H2O2 in 0.11 M Na2HPO4-0.044 M sodium citrate buffer, pH 5.4) at a volume of 200 μl was then added to each well. After 20-minute incubation, the enzyme reaction was terminated by adding 50 μl of 0.5 M sulfuric acid. Absorbance of each well was determined at 490 nm using a microplate reader. Apo B concentration was calculated from a standard curve generated from purified Apo B standard that was run in parallel in the same plate. Inhibition of Apo B secretion by the test compound was calculated taking 0.1% DMSO treated cells as controls.
Measurement of Apo AI was performed similar to that of Apo B, except for diluting the sample 11-fold with a dilution buffer (phosphate buffered saline, pH 7.2 containing 0.5% bovine serum albumin and 0.05% Tween-20).
Apo B secretion inhibitors are identified as compounds that decrease Apo B secretion without affecting the secretion of Apo AI.

Structure (SMILES)	TG increase relative to control (%) (ddY-mice)	inhibition at 0.01 µM (Apo B secretion)
Cc1ccc(C(=O)Nc2ccc(NCCc3ccccn3)cc2)c(N(C)C)c1 [Example 42, 2-(Dimethylamino)-4-methyl-N-(4-{[2-(2-pyridinyl)ethyl]amino}phenyl)benzamide]	33%	85.8%
Cc1ccc(C(=O)Nc2ccc(NCCn3cccn3)cc2)c(N(C)C)c1 [Example 183, 2-(dimethylamino)-4-methyl-N-(4-{[2-(1H-pyrazol-1-yl)ethyl]amino}phenyl)benzamide]	27%	81.2%
CN(C)c1cc(Cl)ccc1C(=O)Nc1ccc(NCCc2cccc(N)n2)cc1 [Example 435, N-(4-{[2-(6-Amino-2-pyridinyl)ethyl]amino}phenyl)-4-chloro-2-(dimethylamino)benzamide]	52%	85.9%
Cc1ccc(C(=O)Nc2ccc(NC(=O)C(C)c3ccccn3)cc2)c(N2CCC(C)CC2)n1 (centres unmarked) [Example 415, 6-Methyl-2-(4-methyl-1-piperidinyl)-N-(4-{[2-(2-pyridinyl)propanoyl]amino}phenyl)nicotinamide]		76.2%
CCc1ccc(C(=O)Nc2ccc(NCCn3cccn3)cc2)c(N(C)C)c1 [Example 473, 2-(Dimethylamino)-4-ethyl-N-(4-{[2-(1H-pyrazol-1-yl)ethyl]amino}phenyl)benzamide]		75.7%
CC1CCN(c2ncccc2C(=O)Nc2ccc(NCCc3ccccn3)cc2)CC1 [Example 54, 2-(4-Methyl-1-piperidinyl)-N-(4-{[2-(2-pyridinyl)ethyl]amino}phenyl)nicotinamide]	28%	86.3%
Cc1ccc(C(=O)Nc2ccc(NC(=O)Cn3cccn3)cc2)c(N2CCC(C)CC2)n1 [Example 193, 6-methyl-2-(4-methyl-1-piperidinyl)-N-{4-[(1H-pyrazol-1-ylacetyl)amino]phenyl}nicotinamide]		71.5%
